Reference: publication PMC11588265, “Auto QSAR-based active learning docking for hit identification of potential inhibitors of Plasmodium falciparum Hsp90 as antimalarial agents” (PLOS ONE, 2024)
Values joined by “and” are separate entries in the source; they are usually repeats but may differ in a detail not shown here. Equal entries are not always repeated. Where two headings read alike, the source gives them in different places. Each block holds one compound with its values, some of them ahead of it.

What was measured:
[1] = test system: Plasmodium; conditions: known inhibitor; ref (11); read-out: anti-Plasmodium IC50; cited from earlier work
[2] = test system: hepatocellular carcinoma (HepG2); experiment: In vitro cytotoxicity, MTT assay, HepG2 cells; assay type: cell-based, human; conditions: for IC50: HepG2 cells, MTT, 48 h; for HepG2 (SI): selectivity index, HepG2 vs PfNF54
Protocol: (§1) Selectivity of the compounds for the parasites was determined using two cytotoxicity assays both of which were conducted at the H3D Centre. Compounds were screened against the mammalian cells, Chinese Hamster Ovarian (CHO) and hepatocellular carcinoma (HepG2), using the 3-(4,5-dimethylthiazol-2-yl)-2,5-diphenyltetrazoliumbromide (MTT) assay. Cells were plated to a density of 10^5 cells/well in 96-well plates and allowed to attach for 24h. After that compounds were added at various concentrations from 50μM to 16nM and the cells incubated for a further 48h. Emetine was used as the control. After that MTT was added and plates were read 4h later. ‘‘Survival” was plotted against concentration and the IC50-values were obtained using a non-linear dose-response curve fitting analysis via the Dotmatics software platform.

[3] = test system: Chinese Hamster Ovarian (CHO) cells; experiment: In vitro cytotoxicity, MTT assay, CHO cells; assay type: cell-based; conditions: for IC50: CHO cells, MTT, 48 h, read-out: In vitro IC50 Mammalian cells; for Mammalian cells (SI): selectivity index, CHO vs PfNF54
Protocol: as §1

[4] = test system: P. falciparum NF54 strain; experiment: In vitro anti-Plasmodium assay (parasite lactate dehydrogenase); assay type: cell-based; conditions: P. falciparum NF54 drug-sensitive strain, read-out: In vitro IC50 PfNF54
Protocol: In vitro anti-Plasmodial assays were conducted at the H3D testing centre at the University of Cape Town. All 15 commercially available compounds were evaluated for anti-Plasmodium activity using a parasite lactate dehydrogenase assay as a marker for parasite survival, as previously described by. Briefly, the parasites were synchronized at the ring stage using d-sorbitol in water. Approximately 2 mg/mL stock solutions of reference drugs, chloroquine and artesunate, were prepared in water and DMSO respectively then stored in -20°C. Test compounds and reference drugs were serially diluted to give 10 concentrations with a final volume of 100 μL in each well. Parasites were incubated in the presence of the compounds at 37°C under hypoxic conditions (4% CO2 and 3% O2 in N2) for 72 h. The absorbance was measured at 620 nm on a microplate reader. Survival was plotted against concentration and the IC50-values were obtained using a non-linear dose-response curve fitting analysis via the Dotmatics software platform.

[5] = target: PfHsp90-NTD (Plasmodium falciparum, UniProt Q8IC05); experiment: Surface plasmon resonance (MP-SPR) binding to immobilized PfHsp90-NTD
Protocol: The NTD of PfHsp90 was expressed and purified as described in [29] and 20μg/ml of the protein was used to study the binding affinities of selected ligands using BioNavis Navi 420A ILVES multi-parametric surface plasmon resonance (MP-SPR) system (BioNavis, Finland) as previously described. Briefly, PfHsp90-NTD was immobilized to a Carboxymethyl dextran coated sensor slide (BioNavis SPR102- CMD-3D). The sensor slide was activated with 0.1 M EDC/0.05 M NHS. At pH 5, PfHsp90-NTD suspended in 5 mM of sodium acetate was immobilized on one channel of the 3 CMD chip. 1 M ethanolamine HCl was used to deactivate the chip by removing excess NHS = EDC, and the sensor cleaned with NaCl/NaOH unspecific binding molecules. Varying concentrations (0-2000/5000 nM) of compounds FTN-T2 and FTN-T5 were injected and introduced to the flow cell, allowing binding to the surface. Data Viewer (BioNavis, Finland) and Trace Drawer software version 1.8 (Ridgeview instruments, Uppsala, Sweden) were used to process and analyze the steady-state equilibrium constant data and estimate the binding affinities.

[6] = test system: P. falciparum 3D7; conditions: cited from earlier work
[7] = test system: human fibroblast cell line; set-up: method as in Everson et al., 2021; conditions: ref Everson et al., 2021, cited from earlier work
[8] = test system: HepG2; set-up: method as in Everson et al., 2021; conditions: ref Everson et al., 2021, cited from earlier work
[9] = Plasmodium falciparum, NF54, 72 h
[10] = P. falciparum 3D7, chloroquine-sensitive strain, ref Everson et al., 2021, read-out: In vitro IC50 Pf3D7

PfHsp90-NTD, sequence (Q8IC05 entry or part of it): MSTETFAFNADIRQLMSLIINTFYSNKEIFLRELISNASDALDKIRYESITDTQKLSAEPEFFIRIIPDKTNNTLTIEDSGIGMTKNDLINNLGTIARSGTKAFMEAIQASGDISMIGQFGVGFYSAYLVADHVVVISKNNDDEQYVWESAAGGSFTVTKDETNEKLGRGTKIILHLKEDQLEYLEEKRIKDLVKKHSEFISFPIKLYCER

SMILES: COC1=C2C[C@@H](C)C[C@H](OC)[C@H](O)[C@@H](C)/C=C(\C)[C@H](OC(N)=O)[C@@H](OC)/C=C\C=C(/C)C(=O)NC(=CC1=O)C2=O [Geldanamycin, geldanamycin]
IC50 [1]: 20 nM

IC50 ([4]; 72 h): 4860 ± 1140 nM
SMILES: Nc1nc2c(ncn2[C@H]2C[C@H](F)[C@@H](CO)O2)c(=O)[nH]1 [FTN-T9]
IC50 [2]: > 50000 nM | HepG2 (SI) [2]: > 10 | IC50 [3]: > 50000 nM | Mammalian cells (SI) [3]: > 10

Kd ([5]; SPR, immobilized PfHsp90-NTD, read-out: equilibrium constant denoting affinity KD): 7 nM and 7.11 nM | IC50 [4, 9]: 4490 ± 1510 nM
SMILES: Nc1ncnc2c1nc(Br)n2[C@@H]1O[C@H](CO)[C@@H](O)[C@H]1O [FTN-T2]
IC50 ([2]; Homo sapiens): 1500 nM | HepG2 (SI) [2]: 0 | IC50 ([3]; Cricetulus griseus): > 50000 nM

Kd ([5]; read-out: equilibrium constant denoting affinity KD): 19.9 nM and 19 nM | IC50 ([4]; 72 h): 1440 ± 500 nM | IC50 [4, 9]: < 1500 nM
SMILES: Cn1c(=O)ccn([C@@H]2O[C@H](CO)[C@@H](O)[C@H]2O)c1=O [FTN-T5]
selectivity index (SI) ([2]; HepG2/CHO cells vs PfNF54): ≥ 29 | IC50 ([2]; Homo sapiens): 42300 nM | HepG2 (SI) [2]: 29 | average SI ([3]; CHO and HepG2 cell lines): ≥ 30 | IC50 ([3]; Cricetulus griseus): > 50000 nM | Mammalian cells (SI) [3]: > 35

SMILES: O=C(NCc1ccc2c(c1)OCO2)C1CCN(c2ncnc3onc(-c4cccc(F)c4)c23)CC1 [Compound 7]
IC50 [6, 10]: 980 ± 654 nM

SMILES: O=C(N[C@H]1CCc2ccccc21)C1CCN(c2ncccc2-c2nc(-c3ccccc3)no2)CC1 [Compound 10]
IC50 [6, 10]: 1110 ± 970 nM | IC50 ([7]; human fibroblast cell line, read-out: In vitro IC50 Mammalian cells): > 24000 nM | Mammalian cells (SI) ([7]; selectivity index): > 21 | IC50 ([8]; HepG2, read-out: In vitro IC50 HepG2): > 24000 nM | HepG2 (SI) ([8]; selectivity index): > 21

SMILES: COc1ccc2c(c1)[nH]c1c(C)nccc12 [Harmine, reference compound]
IC50 ([6]; P. falciparum, ref Shahinas et al., 2010, read-out: In vitro IC50 PfNF54/ Pf3D7): 50 nM | Kd ([5]; equilibrium constant denoting affinity KD, SPR, immobilized PfHsp90-NTD): 18.2 nM
